One data set is described as follows: Aqueous solubility. The format is physicochemical.
For data set [1] the following is noted: cited from earlier work.
Data set [2] in a line: Oxygen sensitivity of the reduced state (bubbling with air for 10 minutes). The format is physicochemical.
Data set [3] is described as follows: Linear sweep voltammetry with rotating disk electrode (Levich plot). Particulars: 1.0 mM in 0.5 M NaCl, Levich equation. The format is physicochemical. The protocol:
Linear sweep voltammetry (LSV) experiments were conducted using a Gamry 1000E potentiostat with a three-electrode system. A 5 mm diameter rotating glassy carbon disk encased in Teflon served as the working electrode. A glassy carbon rod was used as the counter electrode. An Ag/AgCl wire served as the reference electrode. The working electrode was cleaned using the same method as in the CV experiments. During the experiments, the working electrode rotated from 300 rpm to 2400 rpm at increments of 300 rpm. Three scans at each rotation rate were collected to ensure accuracy. LSV scans were conducted at a rate of 5 mV/s from 0.2 V to 0.8 V versus NHE.

Data set [4] in a line: Cyclic voltammetry in 0.5 M NaCl. The data set is classed as physicochemical. On the procedure: Cyclic voltammetry was further used to characterize [(NPr)2TTz]Cl4.r All cyclic voltammetry experiments were conducted in an N2 purged 0.5 M NaCl aqueous solution with a Gamry 1000E potentiostat. A 3 mm PEEK encased glassy carbon disk was used as the working electrode. The working electrode was polished with 0.05 micron Al2O3 powder and rinsed with deionized H2O. A glassy carbon rod was used as the counter electrode. A silver wire coated with AgCl and suspended in 3.0 M KCl electrolyte was used as the reference electrode. The two redox peaks of [(NPr)2TTz]Cl4 were distinguished by peak fitting of its CV curve in the Origin program after removing background current.

Data set [5] in a line: Electron transfer rate constant by Nicholson's method. The format is physicochemical. The protocol: The electron transfer rate constants (k^0) for the electron transfers of [([…]]^3+ were estimated. Following the well-known Nicholson's method (R. S. Nicholson, Anal. Chem. 1965, 37, 1351-1355.), a solution containing 4.0 mM [(NPr)2TTz]Cl4 with 0.5 M NaCl was used to record CV curves (FIG. 6A and FIG. 6B). The peak-to-peak separation (reduction and oxidation peak potential gap), ΔEp, was obtained and used to calculate the kinetic parameter, Ψ, using Equation 2. And then, k^0 was calculated from equation 3 based on the relationship between Ψ and ν^-1/2. Ψ=(-0.6288+0.0021ΔEp)/(1-0.017ΔEp) (Equation 2) Ψ=k^0[πDnF/RT]^-1/2ν^-1/2 (Equation 3) where F, D, and n are defined in Equation 1, R=8.314, and ν represents the scan rate.

Setting [6] is: 500 mV/s scan rate, 4.0 mM in 0.5 M NaCl.

Read-outs that look alike come from different tables or passages of the source.

Consider 5 compounds from patent US11271238B2, “Applications of low-cost, thermal and electrochemically stable organic compounds as high performance redox active materials in redox flow batteries” (Utah State University, priority 2018, dated 2022).

`C[n+]1ccc(-c2nc3sc(-c4cc[n+](C)cc4)nc3s2)cc1.[Cl-].[Cl-]` [(Me2TTz)Cl2, N,N′-dimethyl 2,5-bis(4-pyridinium)thiazolo[5,4-d]thiazole Dichloride] yielded a water solubility in the data set “Aqueous solubility” (in water) of less than 10 mm.

`C[n+]1ccc(-c2cc[n+](C)cc2)cc1` [Methyl viologen]: the “air sensitivity of reduced states” value in data set [1] (MV^+ and MV^0) is recorded as “highly air sensitive”. Moreover, the “solubility of charge-neutral state in aqueous solution” value in data set [1] (aqueous solution) is “insolubility”.

As for `C[N+](C)(C)CCCN1C=CC(=c2nc3sc(=C4C=CN(CCC[N+](C)(C)C)C=C4)nc3s2)C=C1.[Cl-].[Cl-]` [[(NPr)2TTz]Cl2, 3,3′-(thiazolo[5,4-d]thiazole-2,5-diylidenebis(pyridin-1(4H)-yl-4(4H)-ylidene))bis(N,N,N-trimethylpropan-1-aminium) Dichloride], the “oxygen sensitivity of the two-electron reduced state” value in data set [2] is recorded as “no change in color”.

On to `C[N+](C)(C)CCC[n+]1ccc(-c2nc3sc(-c4cc[n+](CCC[N+](C)(C)C)cc4)nc3s2)cc1.[Cl-].[Cl-].[Cl-].[Cl-]` [[(NPr)2TTz]Cl4, 4,4′-(thiazolo[5,4-d]thiazole-2,5-diyl)bis(1-(3-(trimethylammonio)propyl)pyridin-1-ium) tetrachloride], for which the solubility in “Aqueous solubility” (2.0 m NaCl aqueous solution, saline or isotonic, in 2.0 m NaCl, read-out: solubility in 2.0 m NaCl) worked out at 1100 mM. Further, in the data set “Aqueous solubility” (in 2.0 m NaCl), the “charge capacity corresponding to solubility” value is given as 60.0 Ah L^−1. Moreover, the “charge capacity corresponding to solubility” value in “Aqueous solubility” (in H2O) worked out at 69.7 Ah L^−1. Moreover, in the data set “Aqueous solubility” (water, in H2O, read-out: solubility in water), the solubility came to 1300 mM. Also, the “average diffusion coefficient (D) for [(NPr)2TTz]^4+ and [(NPr)2TTz]^3+” value in data set [3] is given as 3.15×10^−6 cm^2 s^−1. In addition, in data set [4] (4.0 mM in 0.5 M NaCl), the “E1/2 of 1st electron reduction ([(NPr)2TTz]^4+/3+)” value is −0.38 V vs. NHE and the “E1/2 of 2nd electron reduction ([(NPr)2TTz]^3+/2+)” value was −0.50 V vs. NHE. Besides, the average redox potential of the two single-electron reductions in data set [4] (neutral NaCl solution) is -0.44 V. For the same compound, in data set [5] (setting [6]), the “peak-to-peak separation ΔEp, 1st electron reduction” value was 53 mV and the “peak-to-peak separation ΔEp, 2nd electron reduction” value is on record as 58 mV. In addition, the “electron transfer rate constant k^0, both single-electron reductions” value in data set [5] (lower limit, Ψ=20, 500 mV/s) is reported as “greater than 0.28 cm/s”.

Turning to “N, N, N, 2, 2, 6, 6-Heptamethylpiperidinyloxy-4-ammonium Chloride [N^Me-TEMPO, reference compound]”, the single-electron oxidation potential result in data set [4] (neutral NaCl solution) is recorded as “+1.0 V (vs. NHE)”.
